Laboratory results: patent publication US11571418B2, “Platinum compounds that inhibit constitutive STAT3 signaling and induce cell cycle arrest and apoptosis of malignant cells” (H. LEE MOFFITT CANCER CENTER AND RESEARCH INSTITUTE, INC., priority 2011, dated 2023)

Experiments:
[1] = tested on: Stat3 tyrosine phosphorylation; assay: Stat3 tyrosine phosphorylation, Western blot; assay type: cell-based; conditions: mouse fibroblasts, time- and dose-dependent
Method: FIGS. 3A-3D. Inhibition of Stat3-mediated gene expression by PLATINUM-401. (FIG. 3A) and (FIG. 3B) v-Src-transformed mouse fibroblasts that stably express Stat3-dependent (NIH3T3/v-Src/pLucTKS3) and Stat3-independent (NIH3T3/v-Src/pRLSRE) luciferase reporters or β-galactosidase (β-gal), as well as normal mouse fibroblast (NIH3T3) transiently transfected with pLucTKS3, pGL2-VEGF-Luc, NFkB-Luc or pLucSRE together with or without v-Src were treated with or without PLATINUM-401 for 48 h. Cytosolic extracts were then prepared from cells for luciferase and […] activities measurements. Values are the means and S.D. of three to five independent assays; (FIG. 3C) and (FIG. 3D) Nuclear extracts or whole cell lysates were prepared from IL-6-stimulated normal mouse fibroblasts (NIH3T3) or their v-Src-transformed counterpart (NIH3T3/v-Src) that are treated with or without PLATINUM-401 for different times. Samples of equal total proteins were then subjected to in vitro DNA-binding activity and EMSA analysis or for SDS-PAGE and Western blot analysis for phosphorylated and total Stat3.
Western blot—Whole-cell lysates were prepared in boiling sodium dodecyl sulfate (SDS) sample-loading buffer to extract total proteins from the cytoplasm and nucleus. […]
To further investigate the activities of PLATINUM-401, the inventors treated malignant cells and measured effects on Stat3 signaling. […]

[2] = tested on: malignant cells harboring constitutively-active Stat3; assay: Ki67 proliferation index by immunohistochemistry; assay type: cell-based
Method: FIGS. 5A and 5B. Evaluation for effects of PLATINUM-401 on cellular constitutive Stat3 activation and cell proliferation. Normal or malignant cells were treated with or without PLATINUM-401 and nuclear extracts were prepared for Stat3 DNA-binding activity assay with hSIE probe, or cells were processed for nuclear Ki67 immunohistochemistry. (FIG. 5A) EMSA analysis of Stat3 DNA-binding activity; (FIG. 5B) Graphical representations of quantified nuclear staining of Ki-67 proliferation index. Stat3:Stat3-DNA complexes in gels are labeled. The Ki-67 proliferation indexes were calculated as the percent positive tumor cells relative to the total number of cells. […]
Immunohistochemistry—The indirect peroxidase-antiperoxidase test was performed on cytospins prepared from cell lines (control and treated). […] The presence of Ki-67 nuclear staining was calculated as percent positive tumor cells in relation to the total number of cells.
The inventors further examined the biological effects of PLATINUM-401 and determined whether any changes might correlate with the inhibition of constitutively-active Stat3. […]
Changes in cell proliferation induced by treatment with PLATINUM-401 were assayed in terms of Ki67 proliferation index by immunohistochemistry. The presence of Ki-67 nuclear staining was calculated as the percent positive tumor cells in relation to the total number of cells.

CC(O)CN1CCN(CC(C)O)CC1 (centres unmarked) [PLATINUM-401]
Stat3 tyrosine phosphorylation [1]: inhibits
Ki67 nuclear staining [2]: significant decreases
